From patent US12606567B2, “Salts and forms of a WEE1 inhibitor” (Recurium IP Holdings, LLC, priority 2020, dated 2026)
≈ marks a conversion by molar mass, not a printed value. Counter-ions that a name gives are not always drawn.

Legend:
Format in all cases: physicochemical
[1] = Solid-state stability of the forms under storage (HPLC purity, XRPD form); conditions: for Form change on storage: all tested stability conditions
Procedure: It only slightly degraded at 60° C. after 2 weeks and at 80° C. after 3 days.

[2] = Hygroscopicity by DVS isotherm at 25° C. between 0% RH and 95% RH, XRPD after DVS; conditions: for Water uptake (DVS): 25° C./80% RH; for Form change after DVS test (XRPD): after DVS at 25° C., 0% RH-95% RH
Procedure: DVS data was measured via a SMS (Surface Measurement Systems) DVS Intrinsic. The relative humidity at 25° C. was calibrated against the deliquescence point of LiCl, Mg(NO3)2 and KCl.

[3] = Equilibrium solubility in SGF, H2O, FaSSIF and FeSSIF, slurry at 37° C. for 24 hrs; conditions: for Solubility / pH of supernatant / Form of residual solid (XRPD): 37° C., 24 hrs
Procedure: About 10-50 mg of each sample was weighed into 1.0 mL of each medium followed by slurry at 37° C. for 24 hrs. The samples were centrifuged and filtered using 0.45 μm PTFE filter. The solids were tested by XRPD and the supernatants were tested by HPLC and pH.

[4] = Thermodynamic stability compared with the amorphous freebase (TGA); conditions: compared with amorphous freebase of Compound A
Procedure: The TGA curve of the amorphous freebase of Compound A indicated a substantial and gradual weight loss starting at 30° C. and continuing to 150° C. with a total of about 17% loss.
TGA data were collected using a TA Q5000/Discovery 5500 TGA from TA Instruments. DSC was performed using a TA Q2000/Discovery 2500 DSC from TA Instruments.

[5] = Initial, for the 25° C./60% RH, 40° C./75% RH and 60° C. series

SMILES	Purity (area %) ([1]; 25° C./60% RH, 2 week)	Purity/Initial (%) ([1]; 25° C./60% RH, 2 week)	Purity (area %) ([1]; 25° C./60% RH, 4 week)	Purity/Initial (%) ([1]; 25° C./60% RH, 4 week)	Purity (area %) ([1]; 40° C./75% RH, 2 week)	Purity/Initial (%) ([1]; 40° C./75% RH, 2 week)	Purity (area %) ([1]; 40° C./75% RH, 4 week)	Purity/Initial (%) ([1]; 40° C./75% RH, 4 week)	Purity (area %) ([1]; 60° C., 2 week)	Purity/Initial (%) ([1]; 60° C., 2 week)	Purity (area %) ([1]; 60° C., 4 week)	Purity/Initial (%) ([1]; 60° C., 4 week)	Purity (area %) ([1]; 80° C., 1 day)	Purity/Initial (%) ([1]; 80° C., 1 day)	Purity (area %) ([1]; 80° C., 3 day)	Purity/Initial (%) ([1]; 80° C., 3 day)	Purity (area %) ([1]; 80° C., 7 day)	Purity/Initial (%) ([1]; 80° C., 7 day)	Purity (area %) [1, 5] [area %]	Thermodynamic stability [4]	also measured
C=CCn1c(=O)c2cnc(Nc3ccc(N4CCN(C)CC4)cc3)nc2n1-c1ccc2c(n1)[C@@](O)(CC)CC2 [Adipate salt Form A]	98.85	100.1	98.91	100.2	98.82	100.1	98.85	100.1	98.25	99.5	97.80	99.1	99.02	100.0	98.77	99.7	98.44	99.4	98.72	more thermodynamically stable than the amorphous freebase	Solid state stability ([1]; 4 weeks at 25° C./60% RH and 40° C./75% RH, 2 weeks at 60° C., 3 days at 80° C.): stable; Purity (area %) ([1]; Initial, for the 80° C. series): 99.03 area %; Degradation ([1]; after 4 weeks at 60° C.): 0.9%; Degradation ([1]; after 7 days at 80° C.): 0.6%; Form change on storage [1]: no form change; Water uptake (DVS) [2]: 2.2%; Form change after DVS test (XRPD) [2]: No form change; Solubility ([3]; FaSSIF): 30800 µg/mL; pH of supernatant ([3]; FaSSIF): 4.8; Form of residual solid (XRPD) ([3]; FeSSIF): Adipate Salt Form A; Solubility ([3]; FeSSIF): 5600 µg/mL; pH of supernatant ([3]; FeSSIF): 4.8; Form of residual solid (XRPD) ([3]; H2O): Adipate Salt Form A; Solubility ([3]; H2O): 25500 µg/mL; pH of supernatant ([3]; H2O): 4.7; Form of residual solid (XRPD) ([3]; SGF): Adipate Salt Form A; Solubility ([3]; SGF): 34100 µg/mL; pH of supernatant ([3]; SGF): 4.4; Solubility comparison ([3]; SGF, H2O, FaSSIF, FeSSIF): higher solubility than freebase Form E of Compound A
C=CCn1c(=O)c2cnc(Nc3ccc(N4CCN(C)CC4)cc3)nc2n1-c1ccc2c(n1)[C@@](O)(CC)CC2 [Freebase Form E]	99.37	100.0	99.39	100.0	99.45	100.1	99.45	100.1	99.35	100.0	99.16	99.8	99.48	100.0	99.31	99.9	99.12	99.7	99.35	more thermodynamically stable than the amorphous freebase	Solid state stability ([1]; 4 weeks at 25° C./60% RH, 40° C./75% RH and 60° C., 7 days at 80° C.): stable; Purity (area %) ([1]; Initial, for the 80° C. series): 99.44 area %; Form change on storage [1]: no form change; Water uptake (DVS) ([2]; listed as freebase Form E of Compound A): 0.6%; Form change after DVS test (XRPD) [2]: No form change; Form of residual solid (XRPD) ([3]; FaSSIF): Freebase Form E; Solubility ([3]; FaSSIF): 1400 µg/mL (≈ 2.66 mM); pH of supernatant ([3]; FaSSIF): 6.8; Form of residual solid (XRPD) ([3]; FeSSIF): Amorphous; Solubility ([3]; FeSSIF): 2600 µg/mL (≈ 4.94 mM); pH of supernatant ([3]; FeSSIF): 5.4; Form of residual solid (XRPD) ([3]; H2O): Freebase Form E; Solubility ([3]; H2O): 99 µg/mL (≈ 0.188 mM); pH of supernatant ([3]; H2O): 8.4; Form of residual solid (XRPD) ([3]; SGF): Freebase Form E; Solubility ([3]; SGF): 9000 µg/mL (≈ 17.1 mM); pH of supernatant ([3]; SGF): 6.6
C=CCn1c(=O)c2cnc(Nc3ccc(N4CCN(C)CC4)cc3)nc2n1-c1ccc2c(n1)[C@@](O)(CC)CC2 [freebase Form J]	–	–	–	–	–	–	–	–	–	–	–	–	–	–	–	–	–	–	–	more thermodynamically stable than the amorphous freebase	–
